From patent US20240158392A1 (Janssen Biotech, Inc., priority 2021, published 2024) come the findings set out here.

Read-outs that look alike come from different tables or passages of the source.

The assay deals with SIK2 (Homo sapiens, UniProt Q9H0K1). Nature of the assay: SIK2 Enzymatic Assay High Version 2 (High ATP). The assay is classed as biochemical. In short, it runs like this: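 At room temperature, enzyme (6 nM, 2× final) was preincubated with compound for 30 min, then 6 mM ATP and 400 μM HDAC5tide (both 2× final) were added for 2 h. ADP formed was measured by ADP-Glo Max (2 h reagent, 1 h detection) using luminescence.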

[1] abbreviates: enzyme 6 nM, 6 mM ATP and 400 μM HDAC5tide (each 2× final concentration), 30 minutes pre-incubation, 2 hours, ADP-Glo Max luminescence, read-out: SIK2 high ATP IC50 (μM) (Test Example 2).

SIK2, sequence (Q9H0K1 whole entry, species assumed): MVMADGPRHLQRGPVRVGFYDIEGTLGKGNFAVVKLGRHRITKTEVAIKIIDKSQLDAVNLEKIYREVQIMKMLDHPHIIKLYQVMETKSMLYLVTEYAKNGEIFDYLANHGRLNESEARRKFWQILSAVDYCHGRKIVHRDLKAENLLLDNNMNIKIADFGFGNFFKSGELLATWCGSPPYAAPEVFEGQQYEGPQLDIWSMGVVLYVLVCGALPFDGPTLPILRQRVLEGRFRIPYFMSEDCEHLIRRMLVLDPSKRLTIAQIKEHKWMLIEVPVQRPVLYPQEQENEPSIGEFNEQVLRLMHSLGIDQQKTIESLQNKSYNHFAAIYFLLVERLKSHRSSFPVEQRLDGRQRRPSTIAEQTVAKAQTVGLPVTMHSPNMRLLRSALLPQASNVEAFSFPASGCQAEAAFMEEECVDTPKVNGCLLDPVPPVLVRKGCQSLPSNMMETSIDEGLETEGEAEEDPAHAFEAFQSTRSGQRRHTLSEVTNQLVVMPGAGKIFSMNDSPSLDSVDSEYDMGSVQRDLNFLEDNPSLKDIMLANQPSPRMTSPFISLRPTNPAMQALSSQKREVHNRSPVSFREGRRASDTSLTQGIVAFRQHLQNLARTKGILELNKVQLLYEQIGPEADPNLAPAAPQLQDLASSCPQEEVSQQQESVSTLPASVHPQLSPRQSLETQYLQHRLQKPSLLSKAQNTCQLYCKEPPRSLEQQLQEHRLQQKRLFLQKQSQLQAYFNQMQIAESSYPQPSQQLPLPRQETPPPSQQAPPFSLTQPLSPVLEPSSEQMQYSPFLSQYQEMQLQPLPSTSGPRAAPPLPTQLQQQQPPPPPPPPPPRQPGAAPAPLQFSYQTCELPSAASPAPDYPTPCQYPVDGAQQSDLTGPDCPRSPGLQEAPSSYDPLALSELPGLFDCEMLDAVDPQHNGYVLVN

`CNC(=O)c1ccnc(Nc2cc3cc(-c4cc(C)ncc4O[C@H]4C[C@H]5COC[C@@H](C4)N5)ccn3n2)c1` [Example 172, 2-((5-(5-(((1R,5S,7s)-3-oxa-9-azabicyclo[3.3.1]nonan-7-yl)oxy)-2-methylpyridin-4-yl)pyrazolo[1,5-a]pyridin-2-yl)amino)-N-methylisonicotinamide]: the concentration for half-maximal inhibition (IC50) (as a rule, the concentration needed to halve the response being measured) was 0.000876 µM.

As for `CNC(=O)c1ccc(Nc2cc3cc(-c4cc(C)ncc4O[C@H]4C[C@H]5COC[C@@H](C4)N5)ccn3n2)nc1` [Example 173, 6-((5-(5-(((1R,5S,7s)-3-oxa-9-azabicyclo[3.3.1]nonan-7-yl)oxy)-2-methylpyridin-4-yl)pyrazolo[1,5-a]pyridin-2-yl)amino)-N-methylnicotinamide], the IC50 was under 0.000847 µM.

Consider `Cc1cc(-c2ccn3nc(Nc4cc(C(F)(F)F)nn4C)cc3c2)c(O[C@H]2C[C@H]3COC[C@@H](C2)N3C)cn1` [Example 174, N-(1-methyl-3-(trifluoromethyl)-1H-pyrazol-5-yl)-5-(2-methyl-5-(((1R,5S,7s)-9-methyl-3-oxa-9-azabicyclo[3.3.1]nonan-7-yl)oxy)pyridin-4-yl)pyrazolo[1,5-a]pyridin-2-amine], for which the half-inhibitory concentration (IC50) came to 0.108 µM.

Turning to `Cc1cc(-c2ccn3nc(NC(=O)C4CC4)cc3c2)c(OC2CCC(=O)CC2)cn1` [Example 186, N-[5-[2-methyl-5-(4-oxocyclohexoxy)-4-pyridyl]pyrazolo[1,5-a]pyridin-2-yl]cyclopropanecarboxamide], under setting [1], the 50% inhibitory concentration (IC50) worked out at 0.0164 µM.

Take `CC#Cc1cc(-c2ccn3nc(Nc4ccn(C)n4)cc3c2)c(O[C@H]2CC[C@H](O)CC2)cn1` [Example 187, trans-4-[[4-[2-[(1-methylpyrazol-3-yl)amino]pyrazolo[1,5-a]pyridin-5-yl]-6-prop-1-ynyl-3-pyridyl]oxy]cyclohexanol]: the concentration for half-maximal inhibition (IC50) under setting [1] stood at 0.00407 µM.

As for `Cc1cc(-c2ccn3nc(NC(=O)C4CC4)cc3c2)c(O[C@H]2CC[C@@](O)(C(F)(F)F)CC2)cn1` [Example 191, N-(5-(5-(((1r,4r)-4-hydroxy-4-(trifluoromethyl)cyclohexyl)oxy)-2-methylpyridin-4-yl)pyrazolo[1,5-a]pyridin-2-yl)cyclopropanecarboxamide], the concentration for half-maximal inhibition (IC50) under setting [1] is 0.00251 µM.

Take `Cc1cc(-c2ccn3nc(NC(=O)C4CC4)cc3c2)c(O[C@H]2CC[C@@](O)(c3ccccc3)CC2)cn1` [Example 192, N-(5-(5-(((1r,1r)-4-hydroxy-4-phenylcyclohexyl)oxy)-2-methylpyridin-4-yl)pyrazolo[1,5-a]pyridin-2-yl)cyclopropanecarboxamide]: under setting [1], the IC50 was 0.0612 µM.

In the case of `Cc1cc(-c2ccn3nc(NC(=O)C4CC4)cc3c2)c(OC2CCC(O)(C(C)C)CC2)cn1` (stereo not drawn) [Example 196], the IC50 under setting [1] came to 0.00247 µM.

As to `Cc1cc(-c2ccn3nc(Nc4cc(C)nc(C)n4)cc3c2)c(O[C@H]2CC[C@H](O)CC2)cn1` [Example 198, trans-4-[[4-[2-[(2,6-dimethylpyrimidin-4-yl)amino]pyrazolo[1,5-a]pyridin-5-yl]-6-methyl-3-pyridyl]oxy]cyclohexanol], the IC50 under setting [1] came out at 0.00877 µM.

Consider `Cc1cc(-c2ccn3nc(NC(=O)C4CC4)cc3c2)c(OC2CCC(=NO)CC2)cn1` (stereo not drawn) [Example 199, N-[5-[5-(4-hydroxyiminocyclohexoxy)-2-methyl-4-pyridyl]pyrazolo[1,5-a]pyridin-2-yl]cyclopropanecarboxamide], for which, under setting [1], the half-inhibitory concentration (IC50) came out at 0.0502 µM.

Consider `Cc1cc(-c2ccn3nc(Nc4cc(C)nc(C)n4)cc3c2)c(OCC(C)(C)O)cn1` [Example 200, 1-[[4-[2-[(2,6-dimethylpyrimidin-4-yl)amino]pyrazolo[1,5-a]pyridin-5-yl]-6-methyl-3-pyridyl]oxy]-2-methyl-propan-2-ol], for which, under setting [1], the IC50 was determined as 0.0445 µM.

`Cc1cc(-c2ccn3nc(Nc4cc(C)c(C)nn4)cc3c2)c(OCC(C)(C)O)cn1` [Example 201, 1-[[4-[2-[(5,6-dimethylpyridazin-3-yl)amino]pyrazolo[1,5-a]pyridin-5-yl]-6-methyl-3-pyridyl]oxy]-2-methyl-propan-2-ol]: the IC50 under setting [1] was 0.0641 µM.
